Tested on: human umbilical vein endothelial cells
Experiment: Proliferation of human umbilical vein endothelial cells by MTT assay
Format: cell-based
Details: Table 4, 48 hours
Protocol: A growth factor, VEGF, or notoginsenoside R1, etc. were used as control groups to screen a plant extract for promoting proliferation of vein endothelial cells and estimating activity of the plant extract. The experimental method is described as follows. Human umbilical vein endothelial cells were inoculated in a 96 well plate coated with gelatin with a density of 5×10^3 cells/well, and cultured with M199 complete medium in a 37° C. incubator with 5% CO2 overnight. The next day, the medium in the 96 well plate was changed to a medium containing a test plant extract with a specific concentration and a fresh 5% serum without ECGS, and then the culture plate was incubated. After 48 hours, activity of cells in the culture plate were analyzed by MTT assay and quantitated to obtain the information of the-functional specice of plant, the best part of the plant and the best extraction method for the plant for promoting the proliferation of human umbilical vein endothelial cells.
The extract of whole plants of Sambucus formosana Nakai (Herb 1) and the extract of roots of Isatis indigotica Fort. (Herb 2) were diluted 10-fold from 100 μg/mL which was an effective concentration from the primary screening to 0.1 μg/mL to determine the effective range and dose-response of the herbal extracts. The results of the proliferation assay for cells treated with different single-plant extracts are shown in FIG. 1A and Table 4, the results of the activity assay for cells treated with a combination of plant extracts are shown in FIG. 1B and Table 5, and the results of the proliferation assay for cells treated with extracts of specific parts of the plant are shown in FIG. 1C and Table 6. The two kinds of herbs with a concentration of 100 μg/mL have significant effects for promoting growth of vein endothelial cells, and are capable of achieving a promoting effect equivalent to that of VEGF.

Compound	Cell growth rate (%) (mean ± standard deviation) (0.005 μM)	Cell growth rate (%) (mean ± standard deviation) (0.05 μM)	Cell growth rate (%) (mean ± standard deviation) (0.5 μM)	Cell growth rate (%) (mean ± standard deviation) (5 μM)	Cell growth rate (%) (mean ± standard deviation) (0.05 μg/mL)	Cell growth rate (%) (mean ± standard deviation) (0.5 μg/mL)	Cell growth rate (%) (mean ± standard deviation) (5 μg/mL)	Cell growth rate (%) (mean ± standard deviation) (50 μg/mL)
C=CCSCC=C [Diallyl sulfide (DAS), Diallyl sulfide]	113 ± 12	123 ± 11	108 ± 2	148 ± 1	–	–	–	–
C=CCSSCC=C [Diallyl disulfide (DADS), Diallyl disulfide]	107 ± 6	110 ± 2	101 ± 9	108 ± 4	–	–	–	–
CC(C)=CCC[C@](C)(O[C@@H]1O[C@H](CO)[C@@H](O)[C@H](O)[C@H]1O)[C@H]1CC[C@]2(C)[C@@H]1[C@H](O)C[C@@H]1[C@@]3(C)CC[C@H](O)C(C)(C)[C@@H]3[C@@H](O[C@@H]3O[C@H](CO)[C@@H](O)[C@H](O)[C@H]3O[C@@H]3OC[C@@H](O)[C@H](O)[C@H]3O)C[C@]12C [Notoginsenoside R1]	–	–	–	–	118 ± 5	95 ± 9	107 ± 18	91 ± 4

— US20130287873A1, “PHARMACEUTICAL COMPOSITION AND METHOD FOR PREPARING A MEDICATION FOR PROMOTING WOUND HEALING” (INDUSTRIAL TECHNOLOGY RESEARCH INSTITUTE, priority 2012, published 2013)
